Literature values as cited in the CATMoS acute toxicity set (Mansouri et al. 2021).
Where “and” joins values, the source holds several entries; their conditions need not be identical. Equal entries are not always repeated.

assay: rat acute oral toxicity; conditions: in vivo

Question: For `O=S(=O)(O)c1ccccc1`, which LD50 is on record?
Answer: Its LD50 is 2050 mg/kg.

Question: With `C1COC(NC(C2CC2)C2CC2)=N1` as the compound, how does the LD50 read?
Answer: Its LD50 is 295 mg/kg.

Question: For `CC(Cc1ccc(O)cc1)NCC(O)c1cc(O)cc(O)c1` (stereo not drawn), which LD50 is on record?
Answer: Its LD50 is 1600 mg/kg.

Question: For `O=C(O)COc1nn(Cc2ccccc2)c2ccccc12`, which LD50 is on record?
Answer: Its LD50 is 1200 mg/kg.

Question: Which LD50 does the source give for `C=C(CC(C)(C)c1ccccc1)c1ccccc1` here?
Answer: Its LD50 is 300 mg/kg.

Question: With `Fc1ccc(C(c2ccc(F)cc2)N2CCN(C/C=C/c3ccccc3)CC2)cc1` as the compound, how does the LD50 read?
Answer: Its LD50 is 503 mg/kg.

Question: Which LD50 does the source give for `CCC(O)CC` here?
Answer: The LD50 was 1870 mg/kg.

Question: Which LD50 does the source give for `Cc1cccc(NC(=O)c2ccccc2C(=O)O)c1` here?
Answer: Its LD50 is 5230 mg/kg.

Question: With `O=[n+]1c2c(n([O-])c3ccccc31)CCCC2` as the compound, how does the LD50 read?
Answer: The LD50 was 1360 mg/kg.

Question: For `O=Cc1cccc(Br)c1`, which LD50 is on record?
Answer: The LD50 was 1130 mg/kg.

Question: For `CC(=O)OC1CC(C)CCC1C(C)C` (stereo not drawn), which LD50 is on record?
Answer: Its LD50 is 7620 mg/kg.

Question: With `CC(=O)OCC(C)O` (stereo not drawn) as the compound, how does the LD50 read?
Answer: The LD50 was 18000 mg/kg.

Question: For `CCCCCCCC=O`, which LD50 is on record?
Answer: Its LD50 is 5630 mg/kg.

Question: With `COC(=O)c1ccco1` as the compound, how does the LD50 read?
Answer: Its LD50 is 300 mg/kg.

Question: Which LD50 does the source give for `Cc1ccccc1N=NN(C)C` here?
Answer: Its LD50 is 350 mg/kg.

Question: For `CCCCC(CC)CN1C(=O)C2C3C=CC(C3)C2C1=O` (stereo not drawn), which LD50 is on record?
Answer: Its LD50 is 2800 mg/kg.

Question: For `CCc1cccc(C)c1N`, which LD50 is on record?
Answer: Its LD50 is 885 mg/kg.

Question: Which LD50 does the source give for `CC(=O)C1OC1(C)C` (stereo not drawn) here?
Answer: The LD50 was 1610 mg/kg.

Question: With `CNC(=O)ON=CC1(C)SC(C)C(C)S1` (stereo not drawn) as the compound, how does the LD50 read?
Answer: The LD50 was 2.5 mg/kg.

Question: Which LD50 does the source give for `ClC(Cl)(Cl)Sn1cccn1` here?
Answer: The LD50 was 350 mg/kg.

Question: Which LD50 does the source give for `Nc1cc([N+](=O)[O-])ccc1O` here?
Answer: The LD50 was 2400 mg/kg.

Question: For `CC(COc1ccc(C(C)(C)C)cc1)OS(=O)OCCCl` (stereo not drawn), which LD50 is on record?
Answer: The LD50 was 3900 mg/kg.

Question: Which LD50 does the source give for `CN(C)CCC=C(c1ccccc1)c1ccc(C(F)(F)F)cc1` here?
Answer: The LD50 was 1000 mg/kg.

Question: With `CCCCSc1ccc(C(SCCN(C)C)c2ccccc2)cc1` (stereo not drawn) as the compound, how does the LD50 read?
Answer: The LD50 was 3800 mg/kg.

Question: Which LD50 does the source give for `CCOC(=O)c1ccc(OC(=O)CCCCCNC(=N)N)cc1` here?
Answer: Its LD50 is 6480 mg/kg.

Question: For `COC(=O)Nc1nc2ccccc2n1C(=O)NCCCCCC#N`, which LD50 is on record?
Answer: The LD50 was 2500 mg/kg.

Question: Which LD50 does the source give for `CC(C)N(CCC(C#N)(c1ccccc1)c1ccccn1)C(C)C` (stereo not drawn) here?
Answer: The LD50 was 596 mg/kg.

Question: With `COc1c(OP(=O)(OC(C)C)OC(C)C)cnn(C)c1=O` as the compound, how does the LD50 read?
Answer: Its LD50 is 1.9 mg/kg.

Question: Which LD50 does the source give for `C#CCc1cc(COC(=O)C2C(C=C(C)C)C2(C)C)c(C)o1` (stereo not drawn) here?
Answer: The LD50 was 14000 mg/kg.

Question: With `c1ccc(N2CCOCC2)cc1` as the compound, how does the LD50 read?
Answer: Its LD50 is 930 mg/kg.

Question: For `CCC(CC)C(=O)OCC(Br)(Br)Br`, which LD50 is on record?
Answer: Its LD50 is 4000 mg/kg.

Question: For `COCC(=O)NP(=O)(OC)SC` (stereo not drawn), which LD50 is on record?
Answer: The LD50 was 200 mg/kg.

Question: For `O=S(=O)(Cl)c1ccc(Cl)cc1`, which LD50 is on record?
Answer: Its LD50 is 4250 mg/kg.

Question: With `CNC(=O)CSP(=O)(OC)SC` (stereo not drawn) as the compound, how does the LD50 read?
Answer: The LD50 was 100 mg/kg.

Question: With `C[C@H]1C[C@H]2[C@@H]3CCC4=CC(=O)C=C[C@]4(C)[C@@]3(F)[C@@H](O)C[C@]2(C)[C@@]1(O)C(=O)COP(=O)(O)O` as the compound, how does the LD50 read?
Answer: The LD50 was 1880 mg/kg.

Question: Which LD50 does the source give for `COc1cc(C)c2[nH]c(C)c(CCN3CC4CCC(CC4)C3)c2c1` here?
Answer: Its LD50 is 787 mg/kg.

Question: Which LD50 does the source give for `Cc1c[nH]cn1` here?
Answer: The LD50 was 751 mg/kg.

Question: With `O=P1(NCCCl)OCCCN1CCCl` (stereo not drawn) as the compound, how does the LD50 read?
Answer: The LD50 was 143 mg/kg.

Question: For `CCC(=O)OC(C)c1ccccc1` (stereo not drawn), which LD50 is on record?
Answer: The LD50 was 5200 mg/kg.

Question: With `CC(C)NCC(O)COC(C)c1ccccc1` (stereo not drawn) as the compound, how does the LD50 read?
Answer: The LD50 was 540 mg/kg.

Question: For `O=C(O)CCCCCCI`, which LD50 is on record?
Answer: Its LD50 is 2240 mg/kg.

Question: With `CN(CCO)c1ccc(N=Nc2c(Cl)cc([N+](=O)[O-])cc2Cl)cc1` as the compound, how does the LD50 read?
Answer: The LD50 was 2820 mg/kg.

Question: With `C=CCNC(N)=S` as the compound, how does the LD50 read?
Answer: Its LD50 is 200 mg/kg.

Question: Which LD50 does the source give for `Nc1cc([N+](=O)[O-])ccc1Cl` here?
Answer: The LD50 was 2020 mg/kg.

Question: With `COc1ccc2c(c1)OC(C)(C)[C@H](c1ccccc1)[C@H]2c1ccc(OCCN)cc1` as the compound, how does the LD50 read?
Answer: Its LD50 is 500 mg/kg.

Question: For `ClCC(Br)CBr` (stereo not drawn), which LD50 is on record?
Answer: Its LD50 is 170 mg/kg.

Question: With `CCCCCCc1ccc(C(CBr)OCC(CC)CCCC)cc1` (stereo not drawn) as the compound, how does the LD50 read?
Answer: The LD50 was 250 mg/kg.

Question: For `O=c1[nH]c2[nH]cnc(=O)c2[nH]1`, which LD50 is on record?
Answer: Its LD50 is 1760 mg/kg.

Question: Which LD50 does the source give for `FC(F)OC(F)(F)C(F)Cl` (stereo not drawn) here?
Answer: Its LD50 is 5450 mg/kg.

Question: For `C=C(O)C(=O)O`, which LD50 is on record?
Answer: Its LD50 is 10000 mg/kg.

Question: Which LD50 does the source give for `CN(Sc1ccc(Cl)c(Cl)c1)C(=O)Oc1cccc2c1OC(C)(C)C2` here?
Answer: The LD50 was 25 mg/kg.

Question: Which LD50 does the source give for `CCC(O)C(c1ccccc1)N1CCN(CCOc2ccccc2C)CC1` (stereo not drawn) here?
Answer: Its LD50 is 700 mg/kg.

Question: With `CCC1(CC)COC(=O)NC1=O` as the compound, how does the LD50 read?
Answer: Its LD50 is 71 mg/kg.

Question: For `CCN(CC)CCOc1ccc(C2=C(c3ccccc3)CCc3cc(OC)ccc32)cc1`, which LD50 is on record?
Answer: Its LD50 is 547 mg/kg.

Question: Which LD50 does the source give for `NC1(C(=O)O)CCCC1` here?
Answer: The LD50 was 290 mg/kg and 260 mg/kg.

Question: Which LD50 does the source give for `CCC(C)c1ccc(Oc2ccc(C)cc2CC(=O)O)c(Cl)c1` (stereo not drawn) here?
Answer: Its LD50 is 1110 mg/kg.

Question: For `O=C(NC(O)C(Cl)(Cl)Cl)NC(O)C(Cl)(Cl)Cl` (stereo not drawn), which LD50 is on record?
Answer: Its LD50 is 6400 mg/kg.

Question: Which LD50 does the source give for `CN(C)CCCN(C)[C@H]1CC[C@H]2[C@@H]3CC=C4C[C@@H](O)CC[C@]4(C)[C@H]3CC[C@]12C` here?
Answer: The LD50 was 470 mg/kg.

Question: With `C[N+](C)(N)CCBr` as the compound, how does the LD50 read?
Answer: The LD50 was 3200 mg/kg.

Question: Which LD50 does the source give for `CC1CC=NN1C(=N)N=C(N)N` (stereo not drawn) here?
Answer: Its LD50 is 4350 mg/kg.

Question: Which LD50 does the source give for `S=C=NCCN=C=S` here?
Answer: Its LD50 is 112 mg/kg.

Question: For `CCOC1c2ccccc2C(=O)N(C)c2ccccc21` (stereo not drawn), which LD50 is on record?
Answer: The LD50 was 4000 mg/kg.

Question: With `CNC(=O)OCc1cccc(COC(=O)NC)n1` as the compound, how does the LD50 read?
Answer: The LD50 was 1230 mg/kg.

Question: For `CC(Cl)(Cl)Cl`, which LD50 is on record?
Answer: The LD50 was 9600 mg/kg.

Question: Which LD50 does the source give for `CN1CCN(CC(=O)N/N=C/c2ccc([N+](=O)[O-])o2)CC1` here?
Answer: Its LD50 is 990 mg/kg and 960 mg/kg and 833 mg/kg.

Question: For `CCOCC(Cl)C(OCC)OCC` (stereo not drawn), which LD50 is on record?
Answer: The LD50 was 1320 mg/kg.

Question: Which LD50 does the source give for `O=C(Oc1cccc(O)c1)c1ccccc1` here?
Answer: Its LD50 is 800 mg/kg.

Question: Which LD50 does the source give for `CCN(CC)S(=O)(=O)c1ccc(OP(=S)(OC)OC)cc1Cl` here?
Answer: Its LD50 is 50 mg/kg.

Question: Which LD50 does the source give for `C=CC(=O)OCC(C)OCC(C)OCC(C)OC(=O)C=C` (stereo not drawn) here?
Answer: The LD50 was 6200 mg/kg.

Question: For `CNCCc1ccc(OC(=O)C(C)C)c(OC(=O)C(C)C)c1`, which LD50 is on record?
Answer: The LD50 was 2930 mg/kg.

Question: For `ClC1=C(Cl)C2(Cl)C(C(Cl)Cl)CC1(Cl)C2(Cl)Cl` (stereo not drawn), which LD50 is on record?
Answer: The LD50 was 1600 mg/kg.

Question: With `Nc1ncnc2c1ncn2[C@@H]1O[C@H](COP(=O)(O)O)[C@@H](O)[C@H]1O` as the compound, how does the LD50 read?
Answer: Its LD50 is 11200 mg/kg.

Question: Which LD50 does the source give for `CC(=O)SCCCCCCSC(C)=O` here?
Answer: The LD50 was 504 mg/kg.
